Key:
HEK293 = test: Antiproliferative activity against human HEK293 cells after 72 hrs by MTS assay; format: functional; details: HEK293, 72 h
HT-29 [1] = test: cells; details: Homo sapiens, HT-29, 72 h
Description: Antiproliferative activity against human HT-29 cells after 72 hrs by MTS assay

[2] = molecular target: T1, Serine/threonine-protein kinase Chk1 (Homo sapiens) (UniProt O14757); test: Inhibition of CHK1 (unknown origin) at 10 uM using Cdc25 peptide as substrate preincubated for 30 mins followed by substrate addition and measured after 60 mins by ADP-Glo kinase assay
T1 sequence (whole entry): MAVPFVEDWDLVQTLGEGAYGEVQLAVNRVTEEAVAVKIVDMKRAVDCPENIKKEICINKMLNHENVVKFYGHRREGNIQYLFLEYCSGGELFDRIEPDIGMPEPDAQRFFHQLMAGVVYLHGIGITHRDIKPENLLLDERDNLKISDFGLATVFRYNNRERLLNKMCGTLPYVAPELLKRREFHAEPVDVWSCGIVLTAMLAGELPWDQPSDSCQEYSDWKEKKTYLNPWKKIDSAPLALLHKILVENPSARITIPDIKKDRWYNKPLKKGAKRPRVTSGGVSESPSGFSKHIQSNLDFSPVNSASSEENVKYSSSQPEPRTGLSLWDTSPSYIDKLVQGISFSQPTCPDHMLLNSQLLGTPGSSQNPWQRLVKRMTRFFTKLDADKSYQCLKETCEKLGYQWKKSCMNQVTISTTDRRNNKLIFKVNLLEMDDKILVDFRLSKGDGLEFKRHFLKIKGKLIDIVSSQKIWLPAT

[3] = molecular target: T2, Serine/threonine-protein kinase Chk1 (Homo sapiens, UniProt O14757); test: Inhibition of CHK1 (unknown origin) using Cdc25 peptide as substrate preincubated for 30 mins followed by substrate addition and measured after 60 mins by ADP-Glo kinase assay
T2 sequence (O14757 whole entry): T1 sequence (whole entry)

HT-29 [4] = test: Cell cycle arrest in human HT-29 cells assessed as accumulation at G1 phase at 25 nM after 48 hrs by propidium iodide/RNase staining-based flow cytometric analysis (reference value: 62.1%); format: functional
HT-29 [5] = test: Cell cycle arrest in human HT-29 cells assessed as accumulation at G2 phase at 25 nM after 48 hrs by propidium iodide/RNase staining-based flow cytometric analysis (reference value: 7.0%); format: functional
HT-29 [6] = test: Cell cycle arrest in human HT-29 cells assessed as accumulation at S phase at 25 nM after 48 hrs by propidium iodide/RNase staining-based flow cytometric analysis (reference value: 30.9%); format: functional

Structure (SMILES) | GI50 (HEK293) [µM] | GI50 (HT-29 [1]) [µM] | inhibition [2] [%] | IC50 [3] [µM] | Activity (HT-29 [4]) [%] | Activity (HT-29 [5]) [%] | Activity (HT-29 [6]) [%]
Fc1ccc(Nc2nc(NC3CCOCC3)c3nc[nH]c3n2)cc1 | > 100 | 86.9 | 37.2 |  |  |  | 
COc1cc(Nc2nc(N3CCOCC3)c3nc[nH]c3n2)cc(OC)c1OC | > 100 | > 100 | 35.8 |  |  |  | 
Fc1cccc(Nc2nc(N3CCOCC3)c3nc[nH]c3n2)c1 | 33.7 | 60.8 | 92 | 3.6 |  |  | 
COc1ccccc1Nc1nc(N2CCOCC2)c2nc[nH]c2n1 | > 100 | > 100 | 3.8 |  |  |  | 
COc1ccc(Nc2nc(N3CCOCC3)c3nc[nH]c3n2)cc1 | > 100 | 74.5 | 51 |  |  |  | 
c1cncc(Nc2nc(N3CCOCC3)c3nc[nH]c3n2)c1 | 33.7 | > 100 | 82.2 | 8.06 |  |  | 
Nc1ccn([C@@H]2O[C@H](CO)[C@@H](O)C2(F)F)c(=O)n1 [GEMCITABINE] |  |  |  |  | 4.3 | 85.2 | 10.5
NC(=O)Nc1cc(-c2cccc(F)c2)sc1C(=O)N[C@H]1CCCNC1 [AZD-7762] | 0.236 | 0.167 |  |  |  |  | 
Clc1cccc(Nc2nc(N3CCOCC3)c3nc[nH]c3n2)c1 | 38.4 | 34.8 | 77.3 | 2.83 |  |  | 
COc1cccc(Nc2nc(N3CCOCC3)c3nc[nH]c3n2)c1 | 38.7 | 72.6 | 84.9 | 3.63 |  |  | 
NC(=O)c1ccc(Nc2nc(N3CCOCC3)c3nc[nH]c3n2)cn1 | 72.2 | 72.2 | 80.3 | 9.87 |  |  | 
FC(F)(F)Oc1cccc(Nc2nc(N3CCOCC3)c3nc[nH]c3n2)c1 | > 100 | > 100 | 31.6 |  |  |  | 
N#Cc1cnc(Nc2cc(NC[C@H]3CNCCO3)c(C(F)(F)F)cn2)cn1 [SRA-737] | 1.39 | 9.22 |  |  |  |  | 
COc1ccc(Nc2nc(N3CCOCC3)c3sccc3n2)cc1 | > 100 | 29.7 |  |  |  |  | 
c1ccc(Nc2nc(N3CCOCC3)c3cc[nH]c3n2)cc1 | 64.7 | 58.3 | 44.5 |  |  |  | 
COc1cc(Nc2nc(N3CCOCC3)c3cc[nH]c3n2)cc(OC)c1OC | 58.7 | 50.4 | 26.9 |  |  |  | 
c1ccc2ncc(Nc3nc(N4CCOCC4)c4nc[nH]c4n3)cc2c1 | 22.3 | 25.1 | 63.1 |  |  |  | 
c1ccc(Nc2nc(NC3CCOCC3)c3nc[nH]c3n2)cc1 | 31.5 | 80.3 | 61.5 |  |  |  | 
Cc1cccc(Nc2nc(N3CCOCC3)c3nc[nH]c3n2)c1 | 40.5 | 67.6 | 85.2 | 1.27 |  |  | 
c1ccc(Nc2nc(N3CCOCC3)c3nc[nH]c3n2)cc1 | 60.2 | > 100 | 82.4 | 2.57 |  |  | 
COc1ccc(Nc2nc(N3CCOCC3)c3cc[nH]c3n2)cc1 | 63.6 | 38.4 | 16.7 |  |  |  | 
O=C(Nc1cccc(Nc2nc(N3CCOCC3)c3nc[nH]c3n2)c1)C(F)(F)F | 73.6 | 58 | 50 |  |  |  | 
COc1cc(Nc2nc(N3CCOCC3)c3sccc3n2)cc(OC)c1OC | > 100 | 31.6 |  |  |  |  | 
c1ccc(Nc2nc(N3CCOCC3)c3sccc3n2)cc1 | > 100 | 54.5 |  |  |  |  | 
c1cnc(Nc2nc(N3CCOCC3)c3nc[nH]c3n2)cn1 | 27.2 | > 100 | 38.2 |  |  |  | 
FC(F)(F)c1cccc(Nc2nc(N3CCOCC3)c3nc[nH]c3n2)c1 | 31.4 | 29.1 | 61.3 |  |  |  | 

From ChEMBL document CHEMBL4152229, “Synthesis and biological evaluation of 2,6-disubstituted-9H-purine, 2,4-disubstitued-thieno[3,2-d]pyrimidine and -7H-pyrrolo[2,3-d]pyrimidine analogues as novel CHK1 inhibitors” (Eur J Med Chem, 2018)
